Source: US20070049593A1 (priority 2004, published 2007)
Where a name gives a salt, the structure may show the parent alone. Read-outs that look alike come from different tables or passages of the source.

Molecular target: T1, HCV polymerase (Hepatitis C virus genotype 1b, UniProt P26663)
T1 construct: a region encoding NS5B (J Virol 1991 March, 65(3), 1105-13, 544 amino acids after deletion of 47 amino acids on the C-terminal); 6xHis (C); made in house; host or cells: Escherichia coli
Assay: biochemical
Parameters: species or system HCV BK strain
Procedure, shortened: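 Recombinant HCV BK-strain NS5B (C-terminal 47 aa deleted, His6-tagged, E. coli), 0.5 μg/ml, run with 5 μg/ml in vitro-transcribed RNA template (polyU/3′X), ATP/GTP/CTP 50 μM, UTP 2 μM plus [3H]UTP, pH 7.5, 25° C, 90 min. TCA-precipitated RNA counted by scintillation; IC50 from activity with vs without compound.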

T1 sequence (P26663 2420-2963): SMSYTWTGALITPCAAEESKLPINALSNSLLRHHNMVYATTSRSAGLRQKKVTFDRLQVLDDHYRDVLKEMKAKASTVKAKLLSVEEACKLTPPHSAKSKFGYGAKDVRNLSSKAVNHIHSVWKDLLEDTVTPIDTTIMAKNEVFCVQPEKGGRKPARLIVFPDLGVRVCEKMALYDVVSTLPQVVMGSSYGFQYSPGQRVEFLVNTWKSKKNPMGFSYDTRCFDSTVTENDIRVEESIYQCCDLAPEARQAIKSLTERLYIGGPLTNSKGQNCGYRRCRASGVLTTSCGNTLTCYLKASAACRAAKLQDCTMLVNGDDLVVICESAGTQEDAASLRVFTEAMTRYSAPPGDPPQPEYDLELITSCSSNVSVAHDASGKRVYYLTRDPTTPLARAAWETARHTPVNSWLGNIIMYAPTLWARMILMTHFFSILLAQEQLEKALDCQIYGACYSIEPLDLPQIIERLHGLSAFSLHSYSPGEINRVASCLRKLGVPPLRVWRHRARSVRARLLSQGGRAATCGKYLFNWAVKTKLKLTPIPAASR

Structure (SMILES)	IC50 [nM]	IC50 (read-out: HCV polymerase inhibitory activity IC50, 25° C., 90 min, [5,6-3H]UTP incorporation into RNA) [nM]
COc1ccc2c(c1)OCCn1c-2c(C2CCCCC2)c2ccc(C(=O)N[C@@H](Cc3ccc(O)cc3)C3=NC(C)(C)C(=O)O3)cc21 [Example 2-524, N—[(S)-1-(4,4-dimethyl-5-oxo-4,5-dihydrooxazol-2-yl)-2-(4-hydroxyphenyl)ethyl]-12-cyclohexyl-3-methoxy-6,7-dihydro-5-oxa-7a-azadibenzo[a,e]azulene-9-carboxamide]	< 100	–
COc1ccc2c(c1)OCCn1c-2c(C2CCCCC2)c2ccc(C(=O)N[C@@H](Cc3ccc(OCc4ccccc4)cc3)c3n[nH]c(C)n3)cc21 [Example 2-525, N—[(S)-2-(4-benzyloxyphenyl)-1-(5-methyl-1H-1,2,4-triazol-3-yl)ethyl]-12-cyclohexyl-3-methoxy-6,7-dihydro-5-oxa-7a-azadibenzo[a,e]azulene-9-carboxamide]	< 100	–
COc1ccc2c(c1)OCCn1c-2c(C2CCCCC2)c2ccc(C(=O)N[C@@H](Cc3ccc(O)cc3)c3n[nH]c(C)n3)cc21 [Example 2-526, N—[(S)-2-(4-hydroxyphenyl)-1-(5-methyl-1H-1,2,4-triazol-3-yl)ethyl]-12-cyclohexyl-3-methoxy-6,7-dihydro-5-oxa-7a-azadibenzo[a,e]azulene-9-carboxamide]	< 100	–
CNC(=O)COc1ccc2[nH]c(C3(NC(=O)c4ccc5c(C6CCCCC6)c6n(c5c4)CCOc4cc(OC)ccc4-6)CCC3)nc2c1 [Example 2-527, N-[1-(5-methylcarbamoylmethoxy-1H-benzimidazol-2-yl)cyclobutyl]-12-cyclohexyl-3-methoxy-6,7-dihydro-5-oxa-7a-azadibenzo[a,e]azulene-9-carboxamide]	< 100	–
COc1ccc2c(c1)OCCn1c-2c(C2CCCCC2)c2ccc(C(=O)NC3(C(=O)Nc4ccc(/C=C(\C)C(=O)O)cc4)CCC3)cc21 [Example 2-528, (E)-3-[4-({1-[(12-cyclohexyl-3-methoxy-6,7-dihydro-5-oxa-7a-azadibenzo[a,e]azulene-9-carbonyl)amino]cyclobutanecarbonyl}amino)phenyl]-2-methylacrylic acid]	< 100	–
COc1ccc2c(c1)OCCn1c-2c(C2CCCCC2)c2ccc(C(=O)NC3(C(=O)Nc4ccc(/C(C)=C/C(=O)O)cc4)CCC3)cc21 [Example 2-529, (E)-3-[4-({1-[(12-cyclohexyl-3-methoxy-6,7-dihydro-5-oxa-7a-azadibenzo[a,e]azulene-9-carbonyl)amino]cyclobutanecarbonyl}amino)phenyl]but-2-enoic acid]	< 100	–
COc1ccc2c(c1)OCCn1c-2c(C2CCCCC2)c2ccc(C(=O)NC3(C(=O)Nc4ccc(/C=C/C(=O)O)cc4OCCOCc4ccccc4)CCC3)cc21 [Example 2-530, (E)-3-[3-(2-benzyloxyethoxy)-4-({1-[(12-cyclohexyl-3-methoxy-6,7-dihydro-5-oxa-7a-azadibenzo[a,e]azulene-9-carbonyl)amino]cyclobutanecarbonyl}amino)phenyl]acrylic acid]	< 100	–
COc1ccc2c(c1)OCCn1c-2c(C2CCCCC2)c2ccc(C(=O)NC3(C(=O)Nc4ccc(/C=C/C(=O)O)c(OC)c4)CCC3)cc21 [Example 2-531, (E)-3-[4-({1-[(12-cyclohexyl-3-methoxy-6,7-dihydro-5-oxa-7a-azadibenzo[a,e]azulene-9-carbonyl)amino]cyclobutanecarbonyl}amino)-2-methoxyphenyl]acrylic acid]	< 100	–
COC[C@](C)(NC(=O)c1ccc2c(C3CCCCC3)c3n(c2c1)CCOc1cc(OC)ccc1-3)C(=O)O [Example 2-532, (S)-2-[(12-cyclohexyl-3-methoxy-6,7-dihydro-5-oxa-7a-azadibenzo[a,e]azulene-9-carbonyl)amino]-3-methoxy-2-methylpropionic acid]	< 100	–
CCn1c([C@H](Cc2ccc(O)cc2)NC(=O)c2ccc3c(C4CCCCC4)c4n(c3c2)CCOc2cc(OC)ccc2-4)n[nH]c1=O [Example 2-533, N—[(S)-1-(4-ethyl-5-oxo-4,5-dihydro-1H-1,2,4-triazol-3-yl)-2-(4-hydroxyphenyl)ethyl]-12-cyclohexyl-3-methoxy-6,7-dihydro-5-oxa-7a-azadibenzo[a,e]azulene-9-carboxamide]	< 100	–
O=C(O)c1ccc2c(C3CCCCC3)c3n(c2c1)CCOc1c(-c2ccccc2/C=C/C(=O)N2CCCCC2)cccc1-3 [Example 2-534, 12-cyclohexyl-4-{2-[(E)-3-oxo-3-(piperidin-1-yl)propenyl]phenyl}-6,7-dihydro-5-oxa-7a-azadibenzo[a,e]azulene-9-carboxylic acid]	< 100	–
O=C(O)c1ccc2c(C3CCCCC3)c3n(c2c1)CCOc1c(-c2ccccc2CCC(=O)N2CCCCC2)cccc1-3 [Example 2-535, 12-cyclohexyl-4-{2-[3-oxo-3-(piperidin-1-yl)propyl]phenyl}-6,7-dihydro-5-oxa-7a-azadibenzo[a,e]azulene-9-carboxylic acid]	< 100	–
O=C(O)c1ccc2c(C3CCCCC3)c3n(c2c1)CCOc1c(-c2ccccc2CCCN2CCCCC2)cccc1-3 [Example 2-536, 12-cyclohexyl-4-{2-[3-(piperidin-1-yl)propyl]phenyl}-6,7-dihydro-5-oxa-7a-azadibenzo[a,e]azulene-9-carboxylic acid monohydrochloride]	< 100	–
COC[C@](C)(NC(=O)c1ccc2c(C3CCCCC3)c3n(c2c1)CCOc1cc(OC)ccc1-3)C(=O)Nc1ccc(/C=C/C(=O)O)cc1 [Example 2-537, (E)-3-{4-((S)-2-[(12-cyclohexyl-3-methoxy-6,7-dihydro-5-oxa-7a-azadibenzo[a,e]azulene-9-carbonyl)amino]-3-methoxy-2-methylpropionylamino}phenyl)acrylic acid]	< 100	–
COc1ccc2c(c1)OCCn1c-2c(C2CCCCC2)c2ccc(C(=O)N[C@@H](Cc3ccc(OCc4ccccc4)cc3)C3OCCO3)cc21 [Example 2-538, N—[(S)-2-(4-benzyloxyphenyl)-1-(1,3-dioxolan-2-yl)ethyl]-12-cyclohexyl-3-methoxy-6,7-dihydro-5-oxa-7a-azadibenzo[a,e]azulene-9-carboxamide]	< 100	–
CC[N+](CC)(CC)Cc1ccc(CC(NC(=O)c2ccc3c(C4CCCCC4)c4n(c3c2)CCOc2cc(OC)ccc2-4)C(=O)OC)cc1 (stereo not drawn) [Example 2-539, N-(4-{2-[(12-cyclohexyl-3-methoxy-6,7-dihydro-5-oxa-7a-azadibenzo[a,e]azulene-9-carbonyl)amino]-2-(methoxycarbonyl)ethyl}benzyl)-N,N,N-triethylammonium chloride]	< 100	–
COc1ccc2c(c1)OCCn1c-2c(C2CCCCC2)c2ccc(C(=O)NC(C)(C)c3ncc(-c4ccc(C(=O)O)cc4)[nH]3)cc21 [Example 2-540, 4-(2-{1-[(12-cyclohexyl-3-methoxy-6,7-dihydro-5-oxa-7a-azadibenzo[a,e]azulene-9-carbonyl)amino]-1-methylethyl}-3H-imidazol-4-yl)benzoic acid monohydrochloride]	–	< 100
COc1ccc2c(c1)OCCn1c-2c(C2CCCCC2)c2ccc(C(=O)NC3(C(=O)Nc4ccc5oc(=O)ccc5c4)CCC3)cc21 [Example 2-541, N-[1-(2-oxo-2H-chromen-6-ylcarbamoyl)cyclobutyl]-12-cyclohexyl-3-methoxy-6,7-dihydro-5-oxa-7a-azadibenzo[a,e]azulene-9-carboxamide]	< 100	–
COc1ccc2c(c1)OCCn1c-2c(C2CCCCC2)c2ccc(C(=O)N[C@@H](Cc3ccc(OCc4ccccc4)cc3)c3noc(C)n3)cc21 [Example 2-542, N—[(S)-2-(4-benzyloxyphenyl)-1-(5-methyl-1,2,4-oxadiazol-3-yl)ethyl]-12-cyclohexyl-3-methoxy-6,7-dihydro-5-oxa-7a-azadibenzo[a,e]azulene-9-carboxamide]	< 100	–
COc1ccc2c(c1)OCCn1c-2c(C2CCCCC2)c2ccc(C(=O)NC3(C(=O)Nc4ccc(/C=C/C(N)=O)cc4)CCC3)cc21 [Example 2-543, N-{1-[4-((E)-2-carbamoylvinyl)phenylcarbamoyl]cyclobutyl}-12-cyclohexyl-3-methoxy-6,7-dihydro-5-oxa-7a-azadibenzo[a,e]azulene-9-carboxamide]	< 100	–
CNC(=O)/C=C/c1ccc(NC(=O)C2(NC(=O)c3ccc4c(C5CCCCC5)c5n(c4c3)CCOc3cc(OC)ccc3-5)CCC2)cc1 [Example 2-544, N-{1-[4-((E)-2-methylcarbamoylvinyl)phenylcarbamoyl]cyclobutyl}-12-cyclohexyl-3-methoxy-6,7-dihydro-5-oxa-7a-azadibenzo[a,e]azulene-9-carboxamide]	< 100	–
COc1ccc2c(c1)OCCn1c-2c(C2CCCCC2)c2ccc(C(=O)NC(C)(C)c3ncc(-c4ccc(CO)cc4)[nH]3)cc21 [Example 2-545, N-{1-[5-(4-hydroxymethylphenyl)-1H-imidazol-2-yl]-1-methylethyl}-12-cyclohexyl-3-methoxy-6,7-dihydro-5-oxa-7a-azadibenzo[a,e]azulene-9-carboxamide]	< 100	–
COc1ccc2c(c1)OCCn1c-2c(C2CCCCC2)c2ccc(C(=O)NC(C)(C)c3ncc(-c4ccc(C(N)=O)cc4)[nH]3)cc21 [Example 2-546, N-{1-[5-(4-carbamoylphenyl)-1H-imidazol-2-yl]-1-methylethyl}-12-cyclohexyl-3-methoxy-6,7-dihydro-5-oxa-7a-azadibenzo[a,e]azulene-9-carboxamide]	< 100	–
CNC(=O)c1ccc(-c2cnc(C(C)(C)NC(=O)c3ccc4c(C5CCCCC5)c5n(c4c3)CCOc3cc(OC)ccc3-5)[nH]2)cc1 [Example 2-547, N-{1-methyl-1-[5-(4-methylcarbamoylphenyl)-1H-imidazol-2-yl]ethyl}-12-cyclohexyl-3-methoxy-6,7-dihydro-5-oxa-7a-azadibenzo[a,e]azulene-9-carboxamide]	< 100	–
